Experimental findings from ChEMBL document CHEMBL2169878 (J Med Chem, 2012) are described below.

Molecules are shown by their SMILES.

Data set [1] relates to Salmonella typhimurium. Put plainly: Mutagenicity against Salmonella typhimurium TA98 assessed as revertants at 80 uM incubated for 90 mins followed by drug washout measured after 2 days relative to positive control. To be noted: salmonella enterica subsp. enterica serovar typhimurium, 1.5 h. It is filed as toxicity, organism-based.
Data set [2] concerns Salmonella typhimurium. Kind of data set: Mutagenicity against Salmonella typhimurium TA98 assessed as revertants at 40 uM incubated for 90 mins followed by drug washout measured after 2 days relative to positive control. The class given is toxicity, organism-based. To be noted: salmonella enterica subsp. enterica serovar typhimurium.
The subject of data set [3] is Salmonella typhimurium. Put plainly: Mutagenicity against Salmonella typhimurium TA98 assessed as revertants at 20 uM incubated for 90 mins followed by drug washout measured after 2 days relative to positive control. To be noted: salmonella enterica subsp. enterica serovar typhimurium, 1.5 h. The class given is toxicity, organism-based.
Data set [4] in a line: Cytotoxicity against mouse NIH3T3 cells after 24 hrs by neutral red dye uptake assay. To be noted: read-out: TC50. It is filed as cell-based.
Data set [5] relates to Salmonella typhimurium. Put plainly: Mutagenicity against Salmonella typhimurium TA100 assessed as revertants at […] incubated for 90 mins followed by drug washout measured after 2 days relative to positive control. The class given is toxicity, organism-based. To be noted: salmonella enterica subsp. enterica serovar typhimurium.
In data set [6] the test system is Salmonella typhimurium. Kind of data set: Mutagenicity against Salmonella typhimurium TA100 assessed as revertants at 5 uM incubated for 90 mins followed by drug washout measured after 2 days relative to positive control. It is filed as toxicity, organism-based. To be noted: salmonella enterica subsp. enterica serovar typhimurium, 1.5 h.
The subject of data set [7] is Salmonella typhimurium. Kind of data set: Mutagenicity against Salmonella typhimurium TA98 assessed as revertants at 5 uM incubated for 90 mins followed by drug washout measured after 2 days relative to positive control. The following applies: salmonella enterica subsp. enterica serovar typhimurium, 1.5 h. The class given is toxicity, organism-based.
The subject of data set [8] is Salmonella typhimurium. Put plainly: Mutagenicity against Salmonella typhimurium TA98 assessed as revertants at 10 uM incubated for 90 mins followed by drug washout measured after 2 days relative to positive control. To be noted: salmonella enterica subsp. enterica serovar typhimurium, 1.5 h. The class given is toxicity, organism-based.
Data set [9] deals with Homo sapiens. Put plainly: Volume of distribution in po dosed human measured in plasma. It is filed as ADME, organism-based. To be noted: in vivo.
The nature of data set [10]: Half life in po dosed human plasma. It is filed as ADME, organism-based.
The test system of data set [11] is Salmonella typhimurium. Kind of data set: Mutagenicity against Salmonella typhimurium TA98 assessed as revertants at […] incubated for 90 mins followed by drug washout measured after 2 days relative to positive control. The class given is toxicity, organism-based. The following applies: salmonella enterica subsp. enterica serovar typhimurium.
For data set [12], the system named is Salmonella typhimurium. Kind of data set: Mutagenicity against Salmonella typhimurium TA100 assessed as revertants at 80 uM incubated for 90 mins followed by drug washout measured after 2 days relative to positive control. To be noted: salmonella enterica subsp. enterica serovar typhimurium. It is filed as toxicity, organism-based.
Data set [13] concerns Homo sapiens. Kind of data set: Volume of distribution in po dosed human measured in whole blood. The class given is ADME, organism-based. The following applies: in vivo.
Data set [14] is described as follows: Cytotoxicity against human HepG2 cells after 24 hrs by neutral red dye uptake assay. The following applies: read-out: TC50. The class given is cell-based.
Data set [15] relates to Salmonella typhimurium. Kind of data set: Mutagenicity against Salmonella typhimurium TA100 assessed as revertants at 20 uM incubated for 90 mins followed by drug washout measured after 2 days relative to positive control. The class given is toxicity, organism-based. The following applies: salmonella enterica subsp. enterica serovar typhimurium, 1.5 h.
In data set [16] the test system is Salmonella typhimurium. Put plainly: Mutagenicity against Salmonella typhimurium TA100 assessed as revertants at 10 uM incubated for 90 mins followed by drug washout measured after 2 days relative to positive control. The class given is toxicity, organism-based. To be noted: salmonella enterica subsp. enterica serovar typhimurium.
For data set [17], the system named is Salmonella typhimurium. Put plainly: Mutagenicity against Salmonella typhimurium TA100 assessed as revertants at 40 uM incubated for 90 mins followed by drug washout measured after 2 days relative to positive control. The class given is toxicity, organism-based. To be noted: salmonella enterica subsp. enterica serovar typhimurium.
Data set [18] concerns Salmonella typhimurium. Put plainly: Mutagenicity against Salmonella typhimurium TA98 assessed as revertants at 35 uM incubated for 90 mins followed by drug washout measured after 2 days relative to positive control. It is filed as toxicity, organism-based. To be noted: salmonella enterica subsp. enterica serovar typhimurium, 1.5 h.
Data set [19] has as its system Plasmodium falciparum. Put plainly: Antiplasmodial activity against chloroquine-resistant Plasmodium falciparum W2 infected in human RBC after 72 hrs by parasite lactate dehydrogenase assay. The class given is functional, organism-based. To be noted: W2, 72 h.
In data set [20] the test system is Salmonella typhimurium. Kind of data set: Mutagenicity against Salmonella typhimurium TA100 assessed as revertants at 2 uM incubated for 90 mins followed by drug washout measured after 2 days relative to positive control. It is filed as toxicity, organism-based. The following applies: salmonella enterica subsp. enterica serovar typhimurium.
Data set [21] has as its system Salmonella typhimurium. Put plainly: Mutagenicity against Salmonella typhimurium TA100 assessed as revertants at 35 uM incubated for 90 mins followed by drug washout measured after 2 days relative to positive control. The class given is toxicity, organism-based. The following applies: salmonella enterica subsp. enterica serovar typhimurium.
Data set [22] has as its system Salmonella typhimurium. Kind of data set: Mutagenicity against Salmonella typhimurium TA100 assessed as revertants at 18 uM incubated for 90 mins followed by drug washout measured after 2 days relative to positive control. The class given is toxicity, organism-based. To be noted: salmonella enterica subsp. enterica serovar typhimurium.
Data set [23] relates to Salmonella typhimurium. Put plainly: Mutagenicity against Salmonella typhimurium TA98 assessed as revertants at 2 uM incubated for 90 mins followed by drug washout measured after 2 days relative to positive control. It is filed as toxicity, organism-based. The following applies: salmonella enterica subsp. enterica serovar typhimurium, 1.5 h.
For data set [24], the system named is Salmonella typhimurium. Put plainly: Mutagenicity against Salmonella typhimurium TA100 assessed as revertants at 9 uM incubated for 90 mins followed by drug washout measured after 2 days relative to positive control. The class given is toxicity, organism-based. To be noted: salmonella enterica subsp. enterica serovar typhimurium, 1.5 h.
In data set [25] the test system is Salmonella typhimurium. Kind of data set: Mutagenicity against Salmonella typhimurium TA98 assessed as revertants at 4 uM incubated for 90 mins followed by drug washout measured after 2 days relative to positive control. The class given is toxicity, organism-based. To be noted: salmonella enterica subsp. enterica serovar typhimurium.
In data set [26] the test system is Plasmodium falciparum. Kind of data set: Antiplasmodial activity against chloroquine-sensitive Plasmodium falciparum NF54 infected in human erythrocytes assessed as inhibition of [3H]hypoxanthine incorporation incubated for 48 hrs prior to [3H]hypoxanthine addition measured after 48 hrs by liquid scintillation counting. It is filed as functional, organism-based.

Data set [27] concerns Salmonella typhimurium. Kind of data set: Mutagenicity against Salmonella typhimurium TA98 assessed as revertants at 70 uM incubated for 90 mins followed by drug washout measured after 2 days relative to positive control. The class given is toxicity, organism-based. The following applies: salmonella enterica subsp. enterica serovar typhimurium.
Data set [28] deals with Plasmodium falciparum. Put plainly: Antiplasmodial activity against chloroquine-resistant Plasmodium falciparum K1 infected in human erythrocytes assessed as inhibition of [3H]hypoxanthine incorporation incubated for 48 hrs prior to [3H]hypoxanthine addition measured after 48 hrs by liquid scintillation counting. It is filed as functional, organism-based.
The subject of data set [29] is Salmonella typhimurium. Kind of data set: Mutagenicity against Salmonella typhimurium TA98 assessed as revertants at 9 uM incubated for 90 mins followed by drug washout measured after 2 days relative to positive control. It is filed as toxicity, organism-based. To be noted: salmonella enterica subsp. enterica serovar typhimurium.
Data set [30] concerns Plasmodium falciparum. Kind of data set: Antiplasmodial activity against chloroquine-sensitive Plasmodium falciparum D10 infected in human RBC after 72 hrs by parasite lactate dehydrogenase assay. It is filed as functional, organism-based. To be noted: D10, 72 h.
The test system of data set [31] is Salmonella typhimurium. Put plainly: Mutagenicity against Salmonella typhimurium TA98 assessed as revertants at 18 uM incubated for 90 mins followed by drug washout measured after 2 days relative to positive control. It is filed as toxicity, organism-based. The following applies: salmonella enterica subsp. enterica serovar typhimurium.
For data set [32], the system named is Salmonella typhimurium. Kind of data set: Mutagenicity against Salmonella typhimurium TA100 assessed as revertants at 4 uM incubated for 90 mins followed by drug washout measured after 2 days relative to positive control. The class given is toxicity, organism-based. The following applies: salmonella enterica subsp. enterica serovar typhimurium, 1.5 h.
Data set [33] concerns Salmonella typhimurium. Put plainly: Mutagenicity against Salmonella typhimurium TA100 assessed as revertants at 70 uM incubated for 90 mins followed by drug washout measured after 2 days relative to positive control. It is filed as toxicity, organism-based. The following applies: salmonella enterica subsp. enterica serovar typhimurium.
For data set [34], the system named is Plasmodium falciparum. Kind of data set: Resistance ratio of IC50 for chloroquine-resistant Plasmodium falciparum K1 to IC50 for chloroquine-sensitive Plasmodium falciparum NF54. It is filed as functional.
The test system of data set [35] is Plasmodium falciparum. Kind of data set: Resistance ratio of IC50 for chloroquine-resistant Plasmodium falciparum W2 to IC50 for chloroquine-sensitive Plasmodium falciparum D10. The class given is functional.
Data set [36] concerns Heart. Put plainly: Cardiotoxicity against Sprague-Dawley rat Langendorff perfused heart assessed as QT time interval at 10 uM by electrophysiological analysis (reference value: 68.51 2.73 ms). The class given is toxicity, tissue-based.
The subject of data set [37] is Heart. Put plainly: Cardiotoxicity against Sprague-Dawley rat Langendorff perfused heart assessed as QT time interval at 30 uM by electrophysiological analysis (reference value: 68.51 2.73 ms). It is filed as toxicity, tissue-based.

For the compound `CCN(CC)CCCC(C)Nc1ccnc2cc(Cl)ccc12` (centres undefined) [CHLOROQUINE], the Activity amounted to 50% in [1]; 19% in data set [2]; 29% in data set [3]; 36% in data set [5]; 21% in [6]; 14% in [7]. For the same compound, the Activity in data set [8] amounted to 61%; in [11], 24%; in data set [12] it was 23%; in data set [15], 7%; in data set [16], 26%; in [17] it was 38%. Moreover, the CC50 at 24 h is > 80 µM in [4] and 4.3 µM in [14]. Moreover, the Vd in [9] and in data set [13] was 200 L/kg each time. Moreover, the half-life in data set [10] is 20 days.

For the compound `Clc1ccc(C(Nc2ccnc3cc(Cl)ccc23)c2ccc(Cn3ccnc3)cc2)cc1` (racemic), the Activity in data set [18] is 3%; in data set [20] it was 6%; in [21], 2%; in data set [22], 5%; in data set [23], 0%; in [24], 7%. Further, the Activity was determined as 7% in data set [25]; 2% in data set [27]; 0% in [29]; 3% in [31]; 6% in data set [32]; 2% in data set [33]. The IC50 in data set [19] worked out at 0.057 µM; in data set [26], 0.018 µM; in [28], 0.022 µM; in data set [30] it was 0.03 µM. Moreover, the CC50 at 24 h in data set [4] was determined as 35 µM; in data set [14], 22 µM. The figures for the “Ratio IC50” value in data set [34] and in data set [35] were 1.2 and 1.9, respectively.

As for `CC(C)(C)c1ccc(C(O)CCCN2CCC(C(O)(c3ccccc3)c3ccccc3)CC2)cc1` (centres undefined) [TERFENADINE], the Time in data set [36] came to 99.83 ms; in data set [37] it was 125 ms.
